{"source": "patent US7674815B2", "about": "“Heteroaryl and benzyl amide compounds” (Hoffmann-La Roche Inc., priority 2006, dated 2010)", "data": [{"target": "T1, cholesteryl ester transfer protein (CETP) (Homo sapiens, UniProt P11597)", "T1 construct": "the source of CETP was human lipoprotein-deprived serum (LPDS); from tissue; host or cells: human lipoprotein-deprived serum (LPDS)", "T1 sequence (P11597 18-493)": "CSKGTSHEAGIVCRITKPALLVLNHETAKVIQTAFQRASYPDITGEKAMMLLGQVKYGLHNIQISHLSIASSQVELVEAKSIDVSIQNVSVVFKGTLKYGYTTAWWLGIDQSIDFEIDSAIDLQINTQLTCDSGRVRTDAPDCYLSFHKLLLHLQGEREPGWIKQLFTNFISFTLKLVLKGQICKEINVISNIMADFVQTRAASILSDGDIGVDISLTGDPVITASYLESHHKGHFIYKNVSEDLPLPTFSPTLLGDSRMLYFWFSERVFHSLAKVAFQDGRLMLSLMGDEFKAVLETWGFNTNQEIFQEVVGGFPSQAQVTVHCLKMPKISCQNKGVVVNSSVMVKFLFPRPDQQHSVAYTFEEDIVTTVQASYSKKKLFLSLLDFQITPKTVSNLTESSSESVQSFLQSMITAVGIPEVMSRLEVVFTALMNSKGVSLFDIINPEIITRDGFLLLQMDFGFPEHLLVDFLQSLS", "assay": "CETP inhibition SPA assay in the presence of plasma (CETP source human lipoprotein-deprived serum)", "format": "biochemical", "settings": "source of CETP human lipoprotein-deprived serum (LPDS), radiolabeled cholesteryl ester transfer HDL to LDL", "procedure": "Activity of CETP inhibitors was determined using a buffer assay system. Partially purified CETP transferred radiolabeled cholesteryl ester from HDL donor particles to biotin-labeled LDL acceptor particles. The reaction was stopped by addition of streptavidin-coupled scintillation proximity assay (SPA) beads. These beads captured the biotinylated acceptor particles and transferred radioactivity was measured. The assay system was purchased and performed according to manufacturer's recommendations (Amersham Biosciences). Inhibitory activity of compounds was determined as percentage of positive control activity containing CETP together with donor and acceptor particles. Serial dilution of compounds was performed in order to determine the IC50 values.\nActivity of the compounds was subsequently measured in the presence of plasma using the same assay as described above except that the source of CETP was human lipoprotein-deprived serum (LPDS). Inhibitory activity of compounds was determined as percentage of positive control activity containing all the assay components except compound. Serial dilution of compounds was performed in order to determine the IC50 values.", "units": {"IC50": "nM"}, "values": [{"smiles": "O=C(c1cc(Cl)cc2cc[nH]c12)N(CCc1ccc(Cl)c(Cl)c1)Cc1cc2ccccc2o1", "note": "[Compound 1, 5-chloro-1H-indole-7-carboxylic acid benzofuran-2-ylmethyl-[2-(3,4-dichloro-phenyl)-ethyl]-amide]", "IC50": 7020}, {"smiles": "CNc1ncc(Cl)cc1C(=O)N(CCc1cccc(C(F)(F)F)c1)Cc1ccc(C(C)(C)C)s1", "note": "[Compound 53, N-(5-tert-butyl-thiophen-2-ylmethyl)-5-chloro-2-methylamino-N-[2-(3-trifluoromethyl-phenyl)-ethyl]-nicotinamide]", "IC50": 56}, {"smiles": "CNc1cnc(Cl)cc1C(=O)N(CCc1ccc(Cl)c(Cl)c1)Cc1ccc(C(C)(C)C)nc1", "note": "[Compound 38, N-(6-tert-butyl-pyridin-3-ylmethyl)-2-chloro-N-[2-(3,4-dichloro-phenyl)-ethyl]-5-methylamino-isonicotinamide]", "IC50": 282}]}]}
